Laboratory results as given in PMC4046888 (Cancer cell, 2011).
Read-outs that look alike come from different tables or passages of the source.

What was measured:
[1] = target: EZH1 (in the context of the PRC2 multiprotein complex) (Homo sapiens, UniProt Q92800); test: Histone methyltransferase panel IC50, balanced conditions
[2] = Plasma concentration by LC-MS/MS, mini-osmotic pump infusion; format: in vivo, mouse; conditions: for average steady-state plasma concentration: pilot PK
[3] = tested on: H3K79me2 in Hoxa9-Meis1a transformed hematopoietic progenitors; test: Immunoblot for H3K79me2 in transformed progenitors; format: cell-based, murine; conditions: 10 days
EHMT2 = EHMT2 (Homo sapiens, UniProt Q96KQ7); test: Histone methyltransferase panel IC50, balanced conditions
SEM cells (MLL-AF4) = test: Cell proliferation, viable cell count; format: cell-based; conditions: Homo sapiens, 336 h, read-out: IC50 inhibition of cell proliferation
[4] = tested on: Jurkat cells (nonrearranged); test: Cell proliferation, viable cell count; format: cell-based, human
[5] = tested on: HOXA9 and MEIS1 transcript levels in MV4-11 cells; test: Quantitative real-time PCR, concentration response; conditions: Homo sapiens, MV4-11, 144 h
[6] = tested on: HOXA9 and MEIS1 transcript levels in MOLM-13 cells; test: Quantitative real-time PCR, concentration response; conditions: Homo sapiens, MOLM-13, 144 h
[7] = tested on: REH cells (nonrearranged); test: Cell proliferation, viable cell count; format: cell-based; conditions: Homo sapiens, 336 h, read-out: IC50 inhibition of cell proliferation
MOLM-13 cells (MLL-AF9) = test: Cell proliferation, viable cell count; format: cell-based, human
[8] = tested on: HOXA9, MEIS1 and TBP mRNA in MV4-11 and MOLM-13 cells; test: Quantitative real-time PCR, time course at 3 μM; format: cell-based, human
[9] = tested on: Kasumi-1 cells (nonrearranged); test: Cell proliferation, viable cell count; format: cell-based; conditions: Homo sapiens, Kasumi 1, 336 h, read-out: IC50 inhibition of cell proliferation
MV4-11 cells (MLL-AF4) = test: Cell proliferation, viable cell count; format: cell-based, human
CARM1 = CARM1 (Homo sapiens, UniProt Q86X55); test: Histone methyltransferase panel IC50, balanced conditions
MV4-11 cells = test: Flow cytometry for DNA content and Annexin V; format: cell-based, human; conditions: 3 μM
[10] = tested on: H3K79me2 levels in MOLM-13 cells; test: Immunoblot of extracted histones for H3K79me2; format: cell-based, human; conditions: 4 days, increasing concentrations
Solubility = format: physicochemical
normal C57BL/6 mice = test: Hematologic analysis and tolerability in normal mice; format: in vivo, mouse; conditions: pump 150 mg/ml, 14 days
[11] = tested on: histone methyl marks in MV4-11 cells; test: Immunoblot with panel of methyl-lysine and methyl-arginine specific antibodies; format: cell-based, human; conditions: 10 μM
[12] = tested on: CD14 expression in MOLM-13 cells; test: Flow cytometry for cell surface CD14; format: cell-based, human; conditions: 3 μM, 12 days
SETD7 = SETD7 (Homo sapiens, UniProt Q8WTS6); test: Histone methyltransferase panel IC50, balanced conditions
[13] = tested on: U937 cells (nonrearranged); test: Cell proliferation, viable cell count; format: cell-based; conditions: Homo sapiens, U-937, 336 h, read-out: IC50 inhibition of cell proliferation
[14] = tested on: H3K79me2 in MLL-AF9 transformed hematopoietic progenitors; test: Immunoblot for H3K79me2 in transformed progenitors; format: cell-based, murine; conditions: 10 days
[15] = tested on: MV4-11 cells injected into tail vein of NSG mice; test: Disseminated MV4-11 leukemia model, survival; format: in vivo, mouse
[16] = tested on: HL-60 cells (nonrearranged); test: Cell proliferation, viable cell count; format: cell-based; conditions: Homo sapiens, HL-60, 336 h, read-out: IC50 inhibition of cell proliferation
[17] = target: EZH2 (in the context of the PRC2 multiprotein complex) (Homo sapiens, UniProt Q15910); test: Histone methyltransferase panel IC50, balanced conditions
[18] = tested on: 697 cells (nonrearranged); test: Cell proliferation, viable cell count; format: cell-based; conditions: Homo sapiens, 336 h, read-out: IC50 inhibition of cell proliferation
[19] = tested on: H3K79me2 levels in MV4-11 cells; test: Immunoblot of extracted histones for H3K79me2; format: cell-based, human
[20] = tested on: H3K79me2 levels in Jurkat cells; test: Immunoblot of extracted histones for H3K79me2; format: cell-based, human; conditions: 4 days, increasing concentrations
PRMT5 = PRMT5 (Homo sapiens, UniProt O14744); test: Histone methyltransferase panel IC50, balanced conditions
Chain of PRMT5 (O14744 whole entry): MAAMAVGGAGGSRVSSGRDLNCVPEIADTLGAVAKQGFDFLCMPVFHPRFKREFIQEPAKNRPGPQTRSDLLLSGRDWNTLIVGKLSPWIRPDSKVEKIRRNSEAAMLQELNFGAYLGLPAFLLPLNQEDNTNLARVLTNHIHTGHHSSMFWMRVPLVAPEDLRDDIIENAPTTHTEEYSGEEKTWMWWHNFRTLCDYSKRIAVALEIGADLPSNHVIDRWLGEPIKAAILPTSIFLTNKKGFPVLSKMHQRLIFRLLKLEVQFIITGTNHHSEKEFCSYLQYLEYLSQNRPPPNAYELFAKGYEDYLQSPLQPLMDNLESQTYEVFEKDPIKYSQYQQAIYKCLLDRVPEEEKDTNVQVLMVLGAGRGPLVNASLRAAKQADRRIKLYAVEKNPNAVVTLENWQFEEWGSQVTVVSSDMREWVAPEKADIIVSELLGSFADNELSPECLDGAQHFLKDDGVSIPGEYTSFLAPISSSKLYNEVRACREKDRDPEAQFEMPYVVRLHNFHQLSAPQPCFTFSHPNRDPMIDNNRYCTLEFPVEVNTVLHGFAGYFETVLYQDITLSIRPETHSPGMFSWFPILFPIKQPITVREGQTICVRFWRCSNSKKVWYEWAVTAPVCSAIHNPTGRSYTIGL
Chain of PRMT5 (Q9BQA1 whole entry partner): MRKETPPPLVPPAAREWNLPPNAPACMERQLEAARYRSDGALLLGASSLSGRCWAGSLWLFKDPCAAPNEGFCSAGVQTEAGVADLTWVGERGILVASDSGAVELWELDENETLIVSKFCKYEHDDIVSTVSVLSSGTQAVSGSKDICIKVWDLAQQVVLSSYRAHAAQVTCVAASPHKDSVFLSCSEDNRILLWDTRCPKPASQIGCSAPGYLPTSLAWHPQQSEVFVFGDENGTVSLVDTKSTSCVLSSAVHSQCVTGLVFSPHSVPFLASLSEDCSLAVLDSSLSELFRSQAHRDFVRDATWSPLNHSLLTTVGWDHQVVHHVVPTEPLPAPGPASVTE

PRMT1 = PRMT1 (Homo sapiens, UniProt Q99873); test: as above
WHSC1 = WHSC1 (Homo sapiens, UniProt O96028); test: as above
Chain of WHSC1 (O96028 whole entry): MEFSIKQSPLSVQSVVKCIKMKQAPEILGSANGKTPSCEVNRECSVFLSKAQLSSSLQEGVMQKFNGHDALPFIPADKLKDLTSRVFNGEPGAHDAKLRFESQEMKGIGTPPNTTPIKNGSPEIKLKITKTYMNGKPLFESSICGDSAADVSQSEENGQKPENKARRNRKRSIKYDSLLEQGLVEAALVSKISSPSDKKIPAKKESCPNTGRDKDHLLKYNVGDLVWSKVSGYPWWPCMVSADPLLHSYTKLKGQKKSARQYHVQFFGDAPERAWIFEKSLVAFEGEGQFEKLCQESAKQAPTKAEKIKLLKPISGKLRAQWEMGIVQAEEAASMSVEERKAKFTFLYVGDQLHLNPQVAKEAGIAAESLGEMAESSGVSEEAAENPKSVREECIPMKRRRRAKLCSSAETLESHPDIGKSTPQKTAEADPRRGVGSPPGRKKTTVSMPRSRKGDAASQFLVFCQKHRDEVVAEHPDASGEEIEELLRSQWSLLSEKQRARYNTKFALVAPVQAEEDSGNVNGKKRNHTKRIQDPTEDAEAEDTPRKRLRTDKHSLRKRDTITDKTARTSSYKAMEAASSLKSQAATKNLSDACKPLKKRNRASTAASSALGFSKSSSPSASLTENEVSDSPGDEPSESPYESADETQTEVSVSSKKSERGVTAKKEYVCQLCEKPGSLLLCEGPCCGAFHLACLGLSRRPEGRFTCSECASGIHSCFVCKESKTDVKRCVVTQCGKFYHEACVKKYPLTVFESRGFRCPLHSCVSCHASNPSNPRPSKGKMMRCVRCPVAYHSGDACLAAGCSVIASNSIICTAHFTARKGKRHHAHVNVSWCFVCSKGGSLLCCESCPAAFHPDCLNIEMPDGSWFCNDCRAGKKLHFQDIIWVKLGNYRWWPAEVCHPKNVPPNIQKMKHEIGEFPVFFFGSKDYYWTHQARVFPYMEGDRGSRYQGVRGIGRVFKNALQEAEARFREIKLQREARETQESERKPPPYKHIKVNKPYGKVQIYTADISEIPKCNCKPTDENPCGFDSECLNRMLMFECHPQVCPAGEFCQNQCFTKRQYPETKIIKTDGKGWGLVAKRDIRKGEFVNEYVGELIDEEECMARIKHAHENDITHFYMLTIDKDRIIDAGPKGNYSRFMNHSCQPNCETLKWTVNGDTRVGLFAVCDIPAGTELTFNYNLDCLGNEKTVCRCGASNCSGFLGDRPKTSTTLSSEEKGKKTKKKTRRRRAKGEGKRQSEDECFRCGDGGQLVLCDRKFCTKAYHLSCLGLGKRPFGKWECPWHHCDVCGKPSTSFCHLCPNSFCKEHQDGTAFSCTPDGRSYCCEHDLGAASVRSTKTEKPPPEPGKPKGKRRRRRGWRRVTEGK

PRMT8 = PRMT8 (Homo sapiens, UniProt Q9NR22); test: as above
KOPN-8 cells (MLL-ENL) = test: Cell proliferation, viable cell count; format: cell-based; conditions: Homo sapiens, KOPN-8, 336 h, read-out: IC50 inhibition of cell proliferation
RS4;11 cells (MLL-AF4) = test: Cell proliferation, viable cell count; format: cell-based; conditions: Homo sapiens, RS4-11, 336 h, read-out: IC50 inhibition of cell proliferation
[21] = tested on: primary murine hematopoietic progenitors transformed by MLL-AF9; test: Proliferation of transformed hematopoietic progenitors; format: cell-based; conditions: 10 days treatment, MTT at day 12
[22] = tested on: hematopoietic progenitors transformed by coexpression of HoxA9 and Meis1a; test: as above; format: cell-based, murine; conditions: concentrations of up to 30 μM
[23] = read-out: IC50 decrease of HOXA9 transcript
[24] = read-out: IC50 decrease of MEIS1 transcript

Chain of EZH1 (in the context of the PRC2 multiprotein complex) (Q92800 whole entry, the tested form may be a part): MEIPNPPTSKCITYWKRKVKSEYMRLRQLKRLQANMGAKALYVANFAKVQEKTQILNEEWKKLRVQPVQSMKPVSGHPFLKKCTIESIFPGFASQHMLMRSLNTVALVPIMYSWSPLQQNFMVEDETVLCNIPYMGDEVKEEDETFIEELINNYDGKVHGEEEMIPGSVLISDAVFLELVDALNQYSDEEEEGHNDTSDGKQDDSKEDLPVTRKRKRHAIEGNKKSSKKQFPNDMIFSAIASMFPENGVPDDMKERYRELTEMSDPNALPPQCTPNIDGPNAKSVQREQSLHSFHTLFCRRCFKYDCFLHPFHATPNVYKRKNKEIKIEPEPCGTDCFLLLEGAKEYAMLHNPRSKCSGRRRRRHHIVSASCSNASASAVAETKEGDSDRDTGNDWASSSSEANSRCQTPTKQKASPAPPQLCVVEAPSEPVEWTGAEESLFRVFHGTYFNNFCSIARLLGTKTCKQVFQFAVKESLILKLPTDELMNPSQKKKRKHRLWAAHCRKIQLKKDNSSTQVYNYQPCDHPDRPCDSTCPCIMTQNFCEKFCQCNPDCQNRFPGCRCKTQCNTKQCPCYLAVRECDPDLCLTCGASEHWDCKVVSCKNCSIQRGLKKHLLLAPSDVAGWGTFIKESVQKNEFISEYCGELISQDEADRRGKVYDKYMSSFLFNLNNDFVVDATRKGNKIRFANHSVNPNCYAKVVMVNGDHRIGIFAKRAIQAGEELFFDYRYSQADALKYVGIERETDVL
Chain of EZH1 (in the context of the PRC2 multiprotein complex) (O75530 whole entry partner, the tested form may be a part): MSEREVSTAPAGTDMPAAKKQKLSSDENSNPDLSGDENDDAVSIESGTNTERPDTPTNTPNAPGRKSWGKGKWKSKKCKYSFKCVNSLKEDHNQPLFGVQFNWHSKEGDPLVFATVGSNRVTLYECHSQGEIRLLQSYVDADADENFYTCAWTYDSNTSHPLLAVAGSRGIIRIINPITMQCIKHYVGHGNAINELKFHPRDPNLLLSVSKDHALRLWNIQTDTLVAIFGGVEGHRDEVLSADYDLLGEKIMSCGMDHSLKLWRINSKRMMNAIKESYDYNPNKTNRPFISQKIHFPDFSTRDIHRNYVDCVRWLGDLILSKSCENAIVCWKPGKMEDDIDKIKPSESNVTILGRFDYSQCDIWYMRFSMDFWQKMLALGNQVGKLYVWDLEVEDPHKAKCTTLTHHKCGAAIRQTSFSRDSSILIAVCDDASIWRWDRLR
Chain of EZH1 (in the context of the PRC2 multiprotein complex) (Q15022 whole entry partner, the tested form may be a part): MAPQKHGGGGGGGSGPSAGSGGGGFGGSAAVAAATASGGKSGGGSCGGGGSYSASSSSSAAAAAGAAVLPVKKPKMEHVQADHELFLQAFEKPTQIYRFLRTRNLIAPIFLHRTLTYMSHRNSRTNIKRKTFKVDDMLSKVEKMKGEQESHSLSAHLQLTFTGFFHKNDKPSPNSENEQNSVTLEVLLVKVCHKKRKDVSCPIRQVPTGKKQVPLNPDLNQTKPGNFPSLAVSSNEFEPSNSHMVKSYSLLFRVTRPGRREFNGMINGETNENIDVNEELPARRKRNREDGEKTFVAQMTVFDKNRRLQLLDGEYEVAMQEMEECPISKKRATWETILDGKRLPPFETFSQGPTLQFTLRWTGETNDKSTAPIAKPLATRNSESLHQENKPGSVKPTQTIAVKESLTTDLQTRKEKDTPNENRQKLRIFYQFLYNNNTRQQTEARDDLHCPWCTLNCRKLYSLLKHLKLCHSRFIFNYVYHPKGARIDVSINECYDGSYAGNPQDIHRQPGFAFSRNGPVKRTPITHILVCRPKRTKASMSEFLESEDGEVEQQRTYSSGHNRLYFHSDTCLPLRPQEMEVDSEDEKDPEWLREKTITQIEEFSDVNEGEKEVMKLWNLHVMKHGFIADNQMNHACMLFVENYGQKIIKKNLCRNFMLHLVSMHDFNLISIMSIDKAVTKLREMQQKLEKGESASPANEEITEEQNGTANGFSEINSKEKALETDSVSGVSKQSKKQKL
Chain of EZH1 (in the context of the PRC2 multiprotein complex) (Q09028 whole entry partner, the tested form may be a part): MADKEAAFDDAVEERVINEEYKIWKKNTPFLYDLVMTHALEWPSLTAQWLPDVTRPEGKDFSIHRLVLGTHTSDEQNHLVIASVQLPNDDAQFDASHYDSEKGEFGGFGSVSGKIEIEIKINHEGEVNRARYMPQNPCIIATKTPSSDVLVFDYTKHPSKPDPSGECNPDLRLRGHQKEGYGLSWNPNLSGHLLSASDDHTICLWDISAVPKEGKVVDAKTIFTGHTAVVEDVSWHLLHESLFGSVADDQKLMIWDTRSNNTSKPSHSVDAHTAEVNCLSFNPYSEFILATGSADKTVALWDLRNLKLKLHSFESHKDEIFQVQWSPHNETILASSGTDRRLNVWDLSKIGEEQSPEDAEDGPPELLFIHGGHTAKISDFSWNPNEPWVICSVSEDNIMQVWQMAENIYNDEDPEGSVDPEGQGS

## CC(C)N(CCCNC(=O)Nc1ccc(C(C)(C)C)cc1)C[C@H]1O[C@@H](n2ccc3c(N)ncnc32)[C@H](O)[C@@H]1O [EPZ004777]
[1]
  IC50: > 50 µM
[2]; precluded conventional dosing
  pharmacokinetic properties: poor
[2]; pump 50 mg/ml, s.c. MV4-11 xenograft mice
  average circulating plasma level: 0.55 ± 0.12 µM
[2]; pump 100 mg/ml
  average steady-state plasma concentration: 0.64 ± 0.48 µM
[2]; pump 150 mg/ml
  average steady-state plasma concentration: 0.84 ± 0.45 µM
[3]
  H3K79 methylation: inhibited H3K79 methylation
EHMT2
  IC50: > 50 µM
SEM cells (MLL-AF4)
  IC50: 1.72 µM
[4]; 3 μM, extended treatment
  growth of cells: unaffected
[4]; Homo sapiens, Jurkat, 336 h, read-out: IC50 inhibition of cell proliferation
  IC50: > 50 µM
[5]; [23]
  IC50: ~0.7 µM
[5]; [24]
  IC50: ~0.7 µM
[6]; [23]
  IC50: ~0.7 µM
[6]; [24]
  IC50: ~0.7 µM
[7]
  IC50: 13.9 µM
MOLM-13 cells (MLL-AF9); 3 μM, extended treatment
  number of viable cells: dramatically reduced
MOLM-13 cells (MLL-AF9); Homo sapiens, 336 h, read-out: IC50 inhibition of cell proliferation
  IC50: 0.72 µM
[8]
  time to maximal reduction of HOXA9 and MEIS1 transcripts: 6 to 8 days
  time to significant decrease of HOXA9 and MEIS1 transcripts: ≤ 48 h
[8]; 8 days
  transcript levels of housekeeping gene TBP: unaffected
[9]
  IC50: 33 µM
MV4-11 cells (MLL-AF4); 3 μM, extended treatment
  number of viable cells: dramatically reduced
MV4-11 cells (MLL-AF4); Homo sapiens, MV4-11, 336 h, read-out: IC50 inhibition of cell proliferation
  IC50: 0.17 µM
CARM1
  IC50: > 50 µM
MV4-11 cells; 4 days
  G0/G1 phase cells: modest increase
  S-phase cells: decrease
MV4-11 cells; days 4 to 10
  sub-G1 and Annexin-positive cells: increase
[10]
  global H3K79me2 levels: concentration-dependent reduction
Solubility
  solubility: ≤ 50 µM
Solubility; 15% ethanol, 50% PEG300, 35% water
  solubility: 150 mg/mL
Normal C57BL/6 mice
  bone marrow cellularity: preserved
  colony forming potential of bone marrow progenitors: did not find any significant differences
  granulocyte/monocyte progenitors (GMP): not significantly affected
  overt toxicity: no overt toxicity
  tolerability: well tolerated
Normal C57BL/6 mice; versus control mice
  populations highly enriched for hematopoietic stem cells: did not reveal any difference
Normal C57BL/6 mice; most apparent in CMP and MEP
  committed progenitors (Lin-Sca-1-c-Kit+): statistically significant decrease
Normal C57BL/6 mice; neutrophils, monocytes, lymphocytes increased
  total white blood cell count: statistically significant increase
[11]
  H3K79me1 levels: reduced
  H4R3me2 (residue targeted by PRMT5): no changes
  methylation state of H3K9 and H3K4 (PRDM and SMYD family targets): did not change
[12]
  cell surface expression of CD14: induced
SETD7
  IC50: > 50 µM
[13]
  IC50: > 50 µM
[14]
  H3K79 methylation: inhibited H3K79 methylation
[15]; 100 and 150 mg/ml groups
  pump implant site reaction: Local irritation at the pump implant site
[15]; NSG mice, 14 days
  body weight: no significant weight loss
  tolerability: well tolerated
[15]; pumps 50, 100 or 150 mg/ml, 14 days exposure, log-rank test
  median survival: dose-dependent and statistically significant increase
[16]
  IC50: > 50 µM
[17]
  IC50: > 50 µM
[18]
  IC50: 36.6 µM
[19]; 3 μM
  time to full depletion of H3K79me2: 4 to 5 days
[19]; 4 days, increasing concentrations
  global H3K79me2 levels: concentration-dependent reduction
[20]
  global H3K79me2 levels: concentration-dependent reduction
PRMT5; IC50, ± 95% confidence interval
  IC50: 0.521 ± 0.137 µM
PRMT5; biochemical IC50, only HMT other than DOT1L below this bound
  IC50: < 50 µM
PRMT1
  IC50: > 50 µM
WHSC1
  IC50: > 50 µM
PRMT8
  IC50: > 50 µM
KOPN-8 cells (MLL-ENL)
  IC50: 0.62 µM
RS4;11 cells (MLL-AF4)
  IC50: 6.47 µM
[21]
  concentration strongly inhibiting proliferation: ≥ 3 µM
[22]
  survival of transformed progenitors: unaffected
